Measured values taken from PMC9057277 (RSC Advances, 2020).
Read-outs that look alike come from different tables or passages of the source.

How the values were obtained:
[1] = Stability towards liver microsomes of mice
log D7.4 by HPLC method = format: physicochemical; conditions: HPLC retention on ODP-50 4B column (Shodex Asahipak); pH 7.4, HPLC-based method
[2] = Ex vivo biodistribution in healthy rats; conditions: for Biodistribution BAT: brown adipose tissue; for Biodistribution BAT / Biodistribution adrenals / Biodistribution blood / Biodistribution brain / Biodistribution femur / Biodistribution harderian gland / Biodistribution heart / Biodistribution intestine / Biodistribution kidneys / Biodistribution liver / Biodistribution lung / Biodistribution muscle / Biodistribution pancreas / Biodistribution skin & hair / Biodistribution spleen / Biodistribution stomach / Biodistribution testes / Biodistribution thymus / Biodistribution thyroid gland / Biodistribution urine (calc.) / Biodistribution femur (femur uptake, 18F-defluorination) / Biodistribution WAT: i.v., n = 8, mean ± SD; for Biodistribution WAT: white adipose tissue
[3] = Metabolic stability in vivo: blood clearance, blood components, radiometabolites; parameters: species or system male Wistar rats; conditions: for half-life: male, Wistar, rat, arterial blood, iv, 70 MBq, i.v., arterial blood samples; for half-life / Intact compound in blood plasma: rats; for Radioactivity distribution in blood components: erythrocytes / Radioactivity distribution in blood components: plasma / Radioactivity distribution in blood components: plasma supernatant / Radioactivity distribution in blood components: plasma pellet (bound to plasma proteins) / Radioactivity distribution in blood components: plasma pellet: rat blood; for Radioactivity distribution in blood components: plasma pellet (bound to plasma proteins): + TCA precipitation; for Intact compound in blood plasma: radio-HPLC
[4] = read-out: t1/2 distribution (blood clearance of intact compound)
[5] = read-out: t1/2 elimination (blood clearance of intact compound)

In the case of `C[C@]12CC[C@H]3[C@@H](CCC4=CC(=O)CC[C@@]43C)[C@@H]1CC[C@@H]2O` [Testosteron, reference compound], the “conversion by mouse liver microsomes (positive control for oxidation)” value [1] is reported as “Complete conversion”.

With `[2H]C([2H])([18F])c1cc(-c2ccc(C)cc2)n(-c2ccc(S(C)(=O)=O)cc2)n1` [[D2,^18F]5a] the chromatographic logD (log D7.4 by HPLC method) was 2.72, the “Biodistribution BAT” value ([2]; 5 min p.i.) was 3.31 ± 0.56 SUV and the “Biodistribution BAT” value ([2]; 60 min p.i.) was 1.21 ± 0.11 SUV. It also gave a Biodistribution adrenals ([2]; 5 min p.i.) of 3.28 ± 0.52 SUV, a Biodistribution blood ([2]; 5 min p.i.) of 0.42 ± 0.04 SUV and a Biodistribution brain ([2]; 5 min p.i.) of 0.54 ± 0.12 SUV. It also gave a Biodistribution femur ([2]; 5 min p.i.) of 0.84 ± 0.09 SUV, a Biodistribution harderian gland ([2]; 5 min p.i.) of 1.94 ± 0.14 SUV and a Biodistribution heart ([2]; 5 min p.i.) of 0.76 ± 0.12 SUV. The Biodistribution intestine ([2]; 5 min p.i.) was 10.14 ± 1.96 %ID, the Biodistribution kidneys ([2]; 5 min p.i.) was 1.58 ± 0.24 SUV and the Biodistribution liver ([2]; 5 min p.i.) was 4.16 ± 0.29 SUV. The Biodistribution lung ([2]; 5 min p.i.) was 0.92 ± 0.14 SUV, the Biodistribution muscle ([2]; 5 min p.i.) was 0.52 ± 0.08 SUV and the Biodistribution pancreas ([2]; 5 min p.i.) was 1.37 ± 0.13 SUV. The “Biodistribution skin & hair” value ([2]; 5 min p.i.) was 0.9 ± 0.15 SUV, the Biodistribution spleen ([2]; 5 min p.i.) was 0.56 ± 0.1 SUV and the Biodistribution stomach ([2]; 5 min p.i.) was 1.14 ± 0.57 %ID. The Biodistribution testes ([2]; 5 min p.i.) was 0.48 ± 0.04 SUV, the Biodistribution thymus ([2]; 5 min p.i.) was 0.95 ± 0.08 SUV and the Biodistribution thyroid gland ([2]; 5 min p.i.) was 0.95 ± 0.18 SUV. The “Biodistribution urine (calc.)” value ([2]; 5 min p.i.) was 0.15 ± 1.91 %ID, the Biodistribution adrenals ([2]; 60 min p.i.) was 0.91 ± 0.15 SUV and the Biodistribution blood ([2]; 60 min p.i.) was 0.11 ± 0.01 SUV. For the same molecule, the Biodistribution brain ([2]; 60 min p.i.) was 0.11 ± 0.02 SUV, the “Biodistribution femur (femur uptake, 18F-defluorination)” value ([2]; 60 min p.i.) was 2.6 ± 0.3 SUV and the Biodistribution harderian gland ([2]; 60 min p.i.) was 0.5 ± 0.08 SUV. The Biodistribution heart ([2]; 60 min p.i.) was 0.16 ± 0.03 SUV, the Biodistribution intestine ([2]; 60 min p.i.) was 33.02 ± 3.53 %ID and the Biodistribution kidneys ([2]; 60 min p.i.) was 0.47 ± 0.06 SUV. For the same molecule, the Biodistribution liver ([2]; 60 min p.i.) was 0.92 ± 0.19 SUV, the Biodistribution lung ([2]; 60 min p.i.) was 0.21 ± 0.03 SUV and the Biodistribution muscle ([2]; 60 min p.i.) was 0.19 ± 0.07 SUV. The Biodistribution pancreas ([2]; 60 min p.i.) was 0.62 ± 0.37 SUV, the “Biodistribution skin & hair” value ([2]; 60 min p.i.) was 0.25 ± 0.04 SUV and the Biodistribution spleen ([2]; 60 min p.i.) was 0.22 ± 0.12 SUV. For the same molecule, the Biodistribution stomach ([2]; 60 min p.i.) was 1.19 ± 0.49 %ID, the Biodistribution testes ([2]; 60 min p.i.) was 0.21 ± 0.04 SUV and the Biodistribution thymus ([2]; 60 min p.i.) was 0.21 ± 0.04 SUV. For the same molecule, the Biodistribution thyroid gland ([2]; 60 min p.i.) was 0.45 ± 0.06 SUV, the “Biodistribution urine (calc.)” value ([2]; 60 min p.i.) was 9.12 ± 3.68 %ID and the “Biodistribution WAT” value ([2]; 5 min p.i.) was 2.79 ± 1.06 SUV. For the same molecule, the “Biodistribution WAT” value ([2]; 60 min p.i.) was 2.4 ± 0.28 SUV, the half-life [3, 4] was 1.3 min and the half-life [3, 5] was 17 min. The “Radioactivity distribution in blood components: erythrocytes” value (“Radioactivity distribution … erythrocytes” for short) ([3]; 60 min p.i., + TCA) was 18%, the “Radioactivity distribution in blood components: plasma” value ([3]; 60 min p.i., + TCA) was 73% and the “Radioactivity distribution in blood components: plasma supernatant” value ([3]; 60 min p.i., + TCA) was 39%. For the same molecule, the “Radioactivity distribution in blood components: plasma pellet (bound to plasma proteins)” value ([3]; 60 min p.i.) was 29%, the “Radioactivity distribution … erythrocytes” value ([3]; 60 min p.i., - TCA) was 16% and the “Radioactivity distribution in blood components: plasma” value ([3]; 60 min p.i., - TCA) was 70%. The “Radioactivity distribution in blood components: plasma pellet” value ([3]; 60 min p.i., - TCA) was 1%, the “Radioactivity distribution in blood components: plasma supernatant” value ([3]; 60 min p.i., - TCA) was 73% and the “Intact compound in blood plasma” value ([3]; 20 min p.i.) was 54%. The “Intact compound in blood plasma” value ([3]; 60 min p.i.) was 52%.

In the case of `Cc1ccc(-c2cc(C[18F])nn2-c2ccc(S(C)(=O)=O)cc2)cc1` [[^18F]5a, 3-([^18F]fluoromethyl)-1-[4-(methylsulfonyl)phenyl]-5-(p-tolyl)-1H-pyrazole], the chromatographic logD (log D7.4 by HPLC method) is reported as 2.72, the “liver-to-bladder ratio (hepatobiliary vs renal excretion)” value ([2]; 60 min p.i.) is reported as 2.3 and the “Biodistribution BAT” value ([2]; 5 min p.i.) is reported as 2.21 ± 0.91 SUV. For the same molecule, the “Biodistribution BAT” value ([2]; 60 min p.i.) was 1.13 ± 0.29 SUV, the Biodistribution adrenals ([2]; 5 min p.i.) was 2.25 ± 1.19 SUV and the Biodistribution blood ([2]; 5 min p.i.) was 0.46 ± 0.15 SUV. The Biodistribution brain ([2]; 5 min p.i.) was 0.46 ± 0.14 SUV, the Biodistribution femur ([2]; 5 min p.i.) was 0.96 ± 0.53 SUV and the Biodistribution harderian gland ([2]; 5 min p.i.) was 1.5 ± 0.6 SUV. For the same molecule, the Biodistribution heart ([2]; 5 min p.i.) was 0.79 ± 0.23 SUV, the Biodistribution intestine ([2]; 5 min p.i.) was 6.78 ± 2.69 %ID and the Biodistribution kidneys ([2]; 5 min p.i.) was 1.53 ± 0.49 SUV. The Biodistribution liver ([2]; 5 min p.i.) was 3.84 ± 1.52 SUV, the Biodistribution lung ([2]; 5 min p.i.) was 0.89 ± 0.38 SUV and the Biodistribution muscle ([2]; 5 min p.i.) was 0.35 ± 0.18 SUV. The Biodistribution pancreas ([2]; 5 min p.i.) was 0.97 ± 0.27 SUV, the “Biodistribution skin & hair” value ([2]; 5 min p.i.) was 0.97 ± 0.31 SUV and the Biodistribution spleen ([2]; 5 min p.i.) was 0.53 ± 0.24 SUV. For the same molecule, the Biodistribution stomach ([2]; 5 min p.i.) was 0.87 ± 0.65 %ID, the Biodistribution testes ([2]; 5 min p.i.) was 0.34 ± 0.16 SUV and the Biodistribution thymus ([2]; 5 min p.i.) was 0.76 ± 0.18 SUV. The Biodistribution thyroid gland ([2]; 5 min p.i.) was 0.71 ± 0.4 SUV, the “Biodistribution urine (calc.)” value ([2]; 5 min p.i.) was 3.32 ± 4.35 %ID and the Biodistribution adrenals ([2]; 60 min p.i.) was 1.85 ± 1.91 SUV. The Biodistribution blood ([2]; 60 min p.i.) was 0.12 ± 0.04 SUV, the Biodistribution brain ([2]; 60 min p.i.) was 0.12 ± 0.04 SUV and the “Biodistribution femur (femur uptake, 18F-defluorination)” value ([2]; 60 min p.i.) was 4.1 ± 0.6 SUV. For the same molecule, the Biodistribution harderian gland ([2]; 60 min p.i.) was 0.64 ± 0.28 SUV, the Biodistribution heart ([2]; 60 min p.i.) was 0.15 ± 0.02 SUV and the Biodistribution intestine ([2]; 60 min p.i.) was 19.43 ± 2.27 %ID. The Biodistribution kidneys ([2]; 60 min p.i.) was 0.36 ± 0.19 SUV, the Biodistribution liver ([2]; 60 min p.i.) was 0.78 ± 0.2 SUV and the Biodistribution lung ([2]; 60 min p.i.) was 0.19 ± 0.06 SUV. For the same molecule, the Biodistribution muscle ([2]; 60 min p.i.) was 0.21 ± 0.1 SUV, the Biodistribution pancreas ([2]; 60 min p.i.) was 0.44 ± 0.28 SUV and the “Biodistribution skin & hair” value ([2]; 60 min p.i.) was 0.39 ± 0.2 SUV. It also gave a Biodistribution spleen ([2]; 60 min p.i.) of 0.18 ± 0.07 SUV, a Biodistribution stomach ([2]; 60 min p.i.) of 1.06 ± 0.42 %ID and a Biodistribution testes ([2]; 60 min p.i.) of 0.27 ± 0.17 SUV. The Biodistribution thymus ([2]; 60 min p.i.) was 0.28 ± 0.11 SUV, the Biodistribution thyroid gland ([2]; 60 min p.i.) was 0.67 ± 0.37 SUV and the “Biodistribution urine (calc.)” value ([2]; 60 min p.i.) was 8.55 ± 2.53 %ID. For the same molecule, the “Biodistribution WAT” value ([2]; 5 min p.i.) was 1.45 ± 0.53 SUV, the “Biodistribution WAT” value ([2]; 60 min p.i.) was 1.67 ± 0.23 SUV and the half-life [3, 4] was 0.6 min. For the same molecule, the half-life [3, 5] was 19.5 min, the “Radioactivity distribution … erythrocytes” value ([3]; 60 min p.i., + TCA) was 19% and the “Radioactivity distribution in blood components: plasma” value ([3]; 60 min p.i., + TCA) was 71%. The “Radioactivity distribution in blood components: plasma supernatant” value ([3]; 60 min p.i., + TCA) was 42%, the “Radioactivity distribution in blood components: plasma pellet (bound to plasma proteins)” value ([3]; 60 min p.i.) was 25% and the “Radioactivity distribution … erythrocytes” value ([3]; 60 min p.i., - TCA) was 17%. The “Radioactivity distribution in blood components: plasma” value ([3]; 60 min p.i., - TCA) was 67%, the “Radioactivity distribution in blood components: plasma pellet” value ([3]; 60 min p.i., - TCA) was 1% and the “Radioactivity distribution in blood components: plasma supernatant” value ([3]; 60 min p.i., - TCA) was 80%. The “Intact compound in blood plasma” value ([3]; 20 min p.i.) was 46% and the “Intact compound in blood plasma” value ([3]; 60 min p.i.) was 28%.
